Assay results published in patent US5480869A, “Anti-inflammatory peptide analogs and treatment to inhibit vascular leakage in injured tissues” (The Regents of the University of California, priority 1993, dated 1996).
“And” between values parts separate entries of the source, which are not always exact repeats. Equal entries are not always repeated. Where a SMILES comes first, the peptide text is derived from it. [ ]: non-standard residue; d: D form.

System: rat's hind paw heat-edema
Assay: heat-induced paw edema in pentobarbital-anesthetized rat (58° C. water, 1 minute)
Format: in vivo
Conditions: for ED50 (95% confidence limits): i.y. [sic], 7/8-mers, ten minute interval between administration and 58° C. water for 1 minute, edema 30 minutes after heat, Table 3; for Heat-Edema % Saline Values: ten minutes before 58° C. water for 1 minute, edema measured 30 minutes after heat
Experimental: The inventive peptides were dissolved either in saline or saline acidified with 0.1 M acetic acid and injected intravenously into a pentobarbital-anesthetized rat. The rat's hind paw was then immersed in 58°-60° C. water for 1 minute and the increase in paw weight, as an index of edema and swelling, was measured 30 minutes later. For some peptides, the ability of the substances to inhibit vascular leakage after muscle injury was also tested. Normally, the paw weight of saline-treated animals (controls) will increase by about 65-95% after heat injury. The increase in weight is relative to the contralateral non-heated paw.
In screening the bioactivity of new peptides, a dose of 5 mg/kg i.v. was initially used. In later studies, when greater activity was expected, a screening dose of 1 to 2 mg/kg i.v. was used.
Thus, each peptide was injected intravenously (at the amounts specified, usually 1 or 5 mg/kg, or by full dose-response analysis) 10 minutes (for 7/8-mers) or one hour (for 11-mers) before immersion of the right paw in 58° C. water, for 1 minute, and weights of both paws were obtained 30minutes later. To obtain statistical accuracy, four to six animals were used in each group. The % wt increase was calculated as (wt of heated paw--wt of unheated paw/wt of unheated paw)×100 and converted to % of the saline control group values, which were run concurrently.

[1] = dose 5 mg/kg i.v., N.S. = not different from saline

Structure (SMILES)	Heat-Edema % Saline Values [1] [% Saline Values]	other results
CC[C@H](C)[C@H](NC(=O)[C@@H](Cc1c[nH]c2ccccc12)NC(=O)[C@H](CC(C)C)NC(=O)[C@H](CC(C)C)NC(=O)[C@H](CCCCN)NC(=O)[C@@H](N)CCCNC(=N)N)C(=O)N[C@H](CC(C)C)C(N)=O [Composition 24] (HELM PEPTIDE1{R.K.L.L.[dW].I.[dL].[am]}$$$$V2.0)	–	ED50 (95% confidence limits): 0.82 (0.56-1.2) mg/kg
CC[C@H](C)[C@H](NC(=O)[C@H](Cc1ccc([N+](=O)[O-])cc1)NC(=O)[C@H](CC(C)C)NC(=O)[C@H](CC(C)C)NC(=O)[C@H](CCCCN)NC(=O)[C@@H](N)CCCNC(=N)N)C(=O)N[C@H](CC(C)C)C(N)=O [Composition 12] (HELM PEPTIDE1{R.K.L.L.[O=C([C@H](Cc1ccc([N+](=O)[O-])cc1)N[*:1])[*:2]].I.[dL].[am]}$$$$V2.0)	41 ± 6	–
CC[C@H](C)[C@H](NC(=O)[C@H](CC(C)C)NC(=O)[C@H](CCSC)NC(=O)[C@H](CC(C)C)NC(=O)[C@H](CCCCN)NC(=O)[C@@H](N)CCCNC(=N)N)C(=O)N[C@H](CC(C)C)C(N)=O [Composition 6] (HELM PEPTIDE1{R.K.L.M.L.I.[dL].[am]}$$$$V2.0)	67 ± 10	–
CC[C@H](C)[C@H](NC(=O)[C@H](Cc1ccc(Cl)cc1)NC(=O)[C@H](CC(C)C)NC(=O)[C@H](CC(C)C)NC(=O)[C@H](CCCCN)NC(=O)[C@@H](N)CCCNC(=N)N)C(=O)N[C@H](CC(C)C)C(N)=O [Composition 13] (HELM PEPTIDE1{R.K.L.L.[O=C([C@H](Cc1ccc(Cl)cc1)N[*:1])[*:2]].I.[dL].[am]}$$$$V2.0)	–	Heat-Edema % Saline Values (dose 5 mg/kg i.v., N.S. = not different from saline, 5 mg/kg): 15 ± 5 % Saline Values and 15 % Saline Values
CC[C@H](C)[C@H](NC(=O)[C@H](Cc1ccc(OC)cc1)NC(=O)[C@H](CCSC)NC(=O)[C@H](CC(C)C)NC(=O)[C@H](CCCCN)NC(=O)[C@H](CCCNC(=N)N)NC(=O)[C@H](Cc1ccc(OC)cc1)NC(C)=O)C(=O)N[C@H](CC(C)C)C(N)=O [Composition 29] (Ac-Y(Me)RKLMY(Me)I[dL]-NH2)	–	ED50 (95% confidence limits): 0.22 (0.09-0.55) mg/kg
CC[C@H](C)[C@H](NC(=O)[C@H]1CCCN1C(=O)[C@H](CCSC)NC(=O)[C@H](CC(C)C)NC(=O)[C@H](CCCCN)NC(=O)[C@@H](N)CCCNC(=N)N)C(=O)N[C@H](CC(C)C)C(N)=O [Composition 14] (HELM PEPTIDE1{R.K.L.M.[dP].I.[dL].[am]}$$$$V2.0)	–	Heat-Edema % Saline Values (dose 2 mg/kg i.v.): 21 ± 3 % Saline Values
CC[C@H](C)[C@H](NC(=O)[C@H](CCCCN)NC(=O)[C@H](CC(C)C)NC(=O)[C@H](CC(C)C)NC(=O)[C@H](CCCCN)NC(=O)[C@@H](N)CCCNC(=N)N)C(=O)N[C@H](CC(C)C)C(N)=O [Composition 8] (HELM PEPTIDE1{R.K.L.L.K.I.[dL].[am]}$$$$V2.0)	38 ± 10	–
CC[C@H](C)[C@H](NC(=O)[C@H](Cc1ccc(OC)cc1)NC(=O)[C@H](CCSC)NC(=O)[C@H](CC(C)C)NC(=O)[C@H](CCCCN)NC(=O)[C@H](CCCNC(=N)N)NC(C)=O)C(=O)N[C@@H](C(N)=O)C(C)C [Composition 25] (Ac-RKLMY(Me)I[dV]-NH2)	–	anti-inflammatory activity, result in words (heat-edema, relative to saline controls): retains activity; ED50 (95% confidence limits): 1.0 (0.52-1.9) mg/kg
CC[C@H](C)[C@H](NC(=O)[C@H](CCCNC(=N)N)NC(=O)[C@H](CC(C)C)NC(=O)[C@H](CC(C)C)NC(=O)[C@H](CCCCN)NC(=O)[C@@H](N)CCCNC(=N)N)C(=O)N[C@H](CC(C)C)C(N)=O [Composition 9] (HELM PEPTIDE1{R.K.L.L.R.I.[dL].[am]}$$$$V2.0)	18 ± 3	–
CC[C@H](C)[C@H](NC(=O)[C@H](Cc1ccc(I)cc1)NC(=O)[C@H](CC(C)C)NC(=O)[C@H](CC(C)C)NC(=O)[C@H](CCCCN)NC(=O)[C@@H](N)CCCNC(=N)N)C(=O)N[C@H](CC(C)C)C(N)=O [Composition 11] (HELM PEPTIDE1{R.K.L.L.[O=C([C@H](Cc1ccc(I)cc1)N[*:1])[*:2]].I.[dL].[am]}$$$$V2.0)	49 ± 6	–
CC[C@H](C)[C@H](NC(=O)[C@H](Cc1ccc(O)cc1)NC(=O)[C@H](CCSC)NC(=O)[C@H](CC(C)C)NC(=O)[C@H](CCCCN)NC(=O)[C@@H](N)CCCNC(=N)N)C(=O)N[C@H](CC(C)C)C(N)=O [Composition 5] (HELM PEPTIDE1{R.K.L.M.Y.I.[dL].[am]}$$$$V2.0)	70 ± 9	–
CC[C@H](C)[C@H](NC(=O)[C@H](Cc1ccc(F)cc1)NC(=O)[C@H](CC(C)C)NC(=O)[C@H](CC(C)C)NC(=O)[C@H](CCCCN)NC(=O)[C@@H](N)CCCNC(=N)N)C(=O)N[C@H](CC(C)C)C(N)=O [Composition 10] (HELM PEPTIDE1{R.K.L.L.[O=C([C@H](Cc1ccc(F)cc1)N[*:1])[*:2]].I.[dL].[am]}$$$$V2.0)	54 ± 11	–
